From ChEMBL document CHEMBL1149604, “Disaccharide analogs as probes for glycosyltransferases in Mycobacterium tuberculosis” (Bioorg Med Chem, 2007) come the findings set out here.

Test [1] concerns Mycolicibacterium smegmatis. Description: Activity of Mycobacterial smegmatis-arabinosyltransferase after 1 hr.
The test system of test [2] is Mycolicibacterium smegmatis. Kind of test: Activity of Mycobacterial smegmatis-galactosyltransferase after 1 hr.

Take `[N-]=[N+]=Nc1cccc2c(S(=O)(=O)NCCO[C@H]3O[C@H](CO[C@H]4O[C@H](CO)[C@@H](O)[C@@H]4O)[C@@H](O)[C@@H]3O)cccc12`: in test [1], the Michaelis constant (Km) worked out at 3070 µM.

As for `CN(C)c1cccc2c(S(=O)(=O)NCCO[C@@H]3O[C@@H]([C@@H](O)CO[C@@H]4O[C@@H]([C@@H](O)CO)[C@H](O)[C@H]4O)[C@H](O)[C@H]3O)cccc12`, the Km in test [2] was found to be 2380 µM.

As to `CN(C)c1cccc2c(S(=O)(=O)NCCO[C@H]3O[C@H](CO[C@H]4O[C@H](CO)[C@@H](O)[C@@H]4O)[C@@H](O)[C@@H]3O)cccc12`, in test [1], the Km turned out to be 680 µM.

As for `[N-]=[N+]=Nc1cccc2c(S(=O)(=O)NCCO[C@@H]3O[C@@H]([C@@H](O)CO[C@@H]4O[C@@H]([C@@H](O)CO)[C@H](O)[C@H]4O)[C@H](O)[C@H]3O)cccc12`, in test [2], the Michaelis-Menten constant (Km) was found to be 1980 µM.

With `[N-]=[N+]=Nc1cccc2c(S(=O)(=O)NCCO[C@@H]3O[C@@H](C[C@H](CO)OC4O[C@@H]([C@@H](O)CO)[C@H](O)[C@H]4O)[C@H](O)[C@H]3O)cccc12` (stereo partly specified), the Km in test [2] was found to be 2770 µM.

Turning to `CN(C)c1cccc2c(S(=O)(=O)NCCO[C@@H]3O[C@@H](C[C@H](CO)O[C@@H]4O[C@@H]([C@@H](O)CO)[C@H](O)[C@H]4O)[C@H](O)[C@H]3O)cccc12`, the Km in test [2] was 7330 µM.
